Data as given in ChEMBL document CHEMBL1122221, “Antimycotic azoles. 6. Synthesis and antifungal properties of terconazole, a novel triazole ketal” (1983).

Legend:
Candida albicans [1] = test: Concentration for complete inhibition of growth of Candida albicans; assay type: functional, organism-based
Aspergillus fumigatus [2] = test: Concentration for complete inhibition of growth of Aspergillus fumigatus; assay type: functional, organism-based
Candida tropicalis [3] = test: Concentration for complete inhibition of growth of Candida tropicalis; assay type: functional, organism-based
Cryptococcus neoformans [4] = test: Concentration for complete inhibition of growth of Cryptococcus neo formans; assay type: functional, organism-based
Cavia porcellus [5] = test: Evaluated for cure against microsporosis after topical treatment with 1% of compound in a group of 8 guinea pigs; assay type: functional
Cavia porcellus [6] = test: Evaluated for cure against trichophytosis after topical treatment with 1% of compound in a group of 6 guinea pigs; assay type: functional
Cavia porcellus [7] = test: Evaluated for marked improvement against microsporosis after topical treatment with 0.5% of compound in a group of 8 guinea pigs; assay type: functional
Cavia porcellus [8] = test: Evaluated for marked improvement against trichophytosis after topical treatment with 0.5% of compound in a group of 6 guinea pigs; assay type: functional
Microsporum canis [9] = test: Concentration for complete inhibition of growth of Microsporum canis; assay type: functional, organism-based
Mucor [10] = test: Concentration for complete inhibition of growth of Mucor sp.; assay type: functional
Phialophora verrucosa [11] = test: Concentration for complete inhibition of growth of Phialophora uerrucosa; assay type: functional, organism-based
Rattus norvegicus [12] = test: Evaluated for cure against vaginal candidosis after topical treatment with 1% of compound in a group of 10 rats; assay type: functional
Rattus norvegicus [13] = test: Evaluated for marked improvement against vaginal candidosis after topical treatment with 0.5% of compound in a group of 10 rats; assay type: functional
Saprolegnia [14] = test: Concentration for complete inhibition of growth of Saprolegnia sp.; assay type: functional, organism-based
Sporothrix schenckii [15] = test: Concentration for complete inhibition of growth of Sporo thrix schenck ii; assay type: functional, organism-based
Trichophyton benhamiae [16] = test: Concentration for complete inhibition of growth of Trichophyton mentagrophytes; assay type: functional, organism-based; conditions: Arthroderma benhamiae
Trichophyton rubrum [17] = test: Concentration for complete inhibition of growth of Trichophyton rubrum; assay type: functional, organism-based
Aspergillus fumigatus [18] = test: Concentration for complete inhibition of growth of Aspergillus fumigatus in Sabouraud broth with 10% inactive bovine serum; assay type: functional, organism-based
Aspergillus fumigatus [19] = test: Concentration for marked inhibition of growth of Aspergillus fumigatus in Sabouraud broth; assay type: functional, organism-based
Aspergillus fumigatus [20] = test: Concentration for marked inhibition of growth of Aspergillus fumigatus in Sabouraud broth with 10% inactive bovine serum; assay type: functional, organism-based
Candida albicans [21] = test: Concentration for complete inhibition of growth of Candida albicans in Sabouraud broth with 10% inactive bovine serum; assay type: functional, organism-based
Candida albicans [22] = test: Concentration for marked inhibition of growth of Candida albicans in Sabouraud broth; assay type: functional, organism-based
Candida albicans [23] = test: Concentration for marked inhibition of growth of Candida albicans in Sabouraud broth with 10% inactive bovine serum; assay type: functional, organism-based
Candida tropicalis [24] = test: Concentration for marked inhibition of growth of Candida tropicalis in Sabouraud broth; assay type: functional, organism-based
Candida tropicalis [25] = test: Concentration for marked inhibition of growth of Candida tropicalis in Sabouraud broth with 10% inactive bovine serum; assay type: functional, organism-based
Candida tropicalis [26] = test: Concentration for complete inhibition of growth of Candida tropicalis in Sabouraud broth with 10% inactive bovine serum; assay type: functional, organism-based
Cryptococcus neoformans [27] = test: Concentration for complete inhibition of growth of Cryptococcus neoformans; assay type: functional, organism-based
Cryptococcus neoformans [28] = test: Concentration for complete inhibition of growth of Cryptococcus neoformans in Sabouraud broth with 10% inactive bovine serum; assay type: functional, organism-based
Cryptococcus neoformans [29] = test: Concentration for marked inhibition of growth of Cryptococcus neoformans in Sabouraud broth; assay type: functional, organism-based
Cryptococcus neoformans [30] = test: Concentration for marked inhibition of growth of Cryptococcus neoformans in Sabouraud broth with 10% inactive bovine serum; assay type: functional, organism-based
Cavia porcellus [31] = test: Evaluated for cure against microsporosis after 12 days of one time a day topical treatment with 0.5% of compound in a group of 36 guinea pigs; assay type: functional
Cavia porcellus [32] = test: Evaluated for marked improvement against microsporosis after 12 days of one time a day topical treatment with 0.5% of compound in a group of 36 guinea pigs; Improved; assay type: functional
Cavia porcellus [33] = test: Evaluated for marked improvement against trichophytosis after 12 days of one time a day topical treatment with 0.5% of compound in a group of 20 guinea pigs; Improved; assay type: functional
Microsporum canis [34] = test: Concentration for complete inhibition of growth of Microsporum canis in Sabouraud broth with 10% inactive bovine serum; assay type: functional, organism-based
Microsporum canis [35] = test: Concentration for marked inhibition of growth of Microsporum canis in Sabouraud broth; assay type: functional, organism-based
Microsporum canis [36] = test: Concentration for marked inhibition of growth of Microsporum canis in Sabouraud broth with 10% inactive bovine serum; assay type: functional, organism-based
Mucor [37] = test: Concentration for complete inhibition of growth of Mucor sp. in Sabouraud broth with 10% inactive bovine serum; assay type: functional
Mucor [38] = test: Concentration for marked inhibition of growth of Mucor sp. in Sabouraud broth; assay type: functional
Mucor [39] = test: Concentration for marked inhibition of growth of Mucor sp. in Sabouraud broth with 10% inactive bovine serum; assay type: functional
Phialophora verrucosa [40] = test: Concentration for complete inhibition of growth of Phialophora verrucosa in Sabouraud broth with 10% inactive bovine serum; assay type: functional, organism-based
Phialophora verrucosa [41] = test: Concentration for marked inhibition of growth of Phialophora verrucosa in Sabouraud broth with 10% inactive bovine serum; assay type: functional, organism-based
Phialophora verrucosa [42] = test: Concentration for complete inhibition of growth of Phialophora verrucosa; assay type: functional, organism-based
Rattus norvegicus [43] = test: Evaluated for cure against vaginal candidosis after 3 days of 2 times a day topical treatment with 0.5% of compound in a group of 48 rats; assay type: functional
Saprolegnia [44] = test: Concentration for complete inhibition of growth of Saprolegnia sp. in Sabouraud broth with 10% inactive bovine serum; assay type: functional, organism-based
Saprolegnia [45] = test: Concentration for marked inhibition of growth of Saprolegnia sp. in Sabouraud broth; assay type: functional, organism-based
Saprolegnia [46] = test: Concentration for marked inhibition of growth of Saprolegnia sp. in Sabouraud broth with 10% inactive bovine serum; assay type: functional, organism-based
Sporothrix schenckii [47] = test: Concentration for complete inhibition of growth of Sporothrix schenck ii; assay type: functional, organism-based
Sporothrix schenckii [48] = test: Concentration for complete inhibition of growth of Sporothrix schenck ii in Sabouraud broth with 10% inactive bovine serum; assay type: functional, organism-based
Sporothrix schenckii [49] = test: Concentration for marked inhibition of growth of Sporo thrix schenck ii in Sabouraud broth; assay type: functional, organism-based
Sporothrix schenckii [50] = test: Concentration for marked inhibition of growth of Sporothrix schenck ii in Sabouraud broth with 10% inactive bovine serum; assay type: functional, organism-based
Trichophyton benhamiae [51] = test: Concentration for complete inhibition of growth of Trichophyton mentagrophytes in Sabouraud broth with 10% inactive bovine serum; assay type: functional, organism-based; conditions: Arthroderma benhamiae
Trichophyton benhamiae [52] = test: Concentration for marked inhibition of growth of Trichophyton mentagrophytes in Sabouraud broth; assay type: functional, organism-based; conditions: Arthroderma benhamiae
Trichophyton rubrum [53] = test: Concentration for complete inhibition of growth of Trichophyton rubrum in Sabouraud broth with 10% inactive bovine serum; assay type: functional, organism-based
Trichophyton rubrum [54] = test: Concentration for marked inhibition of growth of Trichophyton rubrum in Sabouraud broth; assay type: functional, organism-based
Trichophyton rubrum [55] = test: Concentration for marked inhibition of growth of Trichophyton rubrum in Sabouraud broth with 10% inactive bovine serum; assay type: functional, organism-based
Trichophyton benhamiae [56] = test: Concentration for marked inhibition of growth of Trichophyton mentagrophytes in Sabouraud broth with 10% inactive bovine serum; assay type: functional, organism-based; conditions: Arthroderma benhamiae
Cavia porcellus [57] = test: Evaluated for cure against trichophytosis after 12 days of one time a day topical treatment with 0.5% of compound in a group of 20 guinea pigs; assay type: functional
Phialophora verrucosa [58] = test: Concentration for marked inhibition of growth of Phialophora verrucosa in Sabouraud broth; assay type: functional, organism-based
Rattus norvegicus [59] = test: Evaluated for marked improvement against vaginal candidosis after 3 days of 2 times a day topical treatment with 0.5% of compound in a group of 48 rats; Improved; assay type: functional

SMILES: Clc1ccccc1C(c1ccccc1)(c1ccccc1)n1ccnc1 [CLOTRIMAZOLE]
- Concentration (Candida albicans [1]): > 100 µg/mL
- Concentration (Aspergillus fumigatus [2]): 100 µg/mL
- Concentration (Candida tropicalis [3]): > 100 µg/mL
- Concentration (Cryptococcus neoformans [4]): > 100 µg/mL
- Cure (Cavia porcellus [5]): 4
- Cure (Cavia porcellus [6]): 3
- Improved (Cavia porcellus [7]): 1
- Improved (Cavia porcellus [8]): 1
- Concentration (Microsporum canis [9]): < 1 µg/mL
- Concentration (Mucor [10]): > 100 µg/mL
- Concentration (Phialophora verrucosa [11]): > 100 µg/mL
- Cure (Rattus norvegicus [12]): 2
- Improved (Rattus norvegicus [13]): 2
- Concentration (Saprolegnia [14]): > 100 µg/mL
- Concentration (Sporothrix schenckii [15]): > 100 µg/mL
- Concentration (Trichophyton benhamiae [16]): < 1 µg/mL
- Concentration (Trichophyton rubrum [17]): < 1 µg/mL

SMILES: CC(C)N1CCN(c2ccc(OCC3COC(Cn4cncn4)(c4ccc(Cl)cc4Cl)O3)cc2)CC1 (configuration not stated) [TERCONAZOLE]
- Concentration (Candida albicans [1]): > 100 µg/mL
- Concentration (Aspergillus fumigatus [2]): > 100 µg/mL
- Concentration (Aspergillus fumigatus [18]): > 100 µg/mL
- Concentration (Aspergillus fumigatus [19]): > 100 µg/mL
- Concentration (Aspergillus fumigatus [20]): 100 µg/mL
- Concentration (Candida albicans [21]): 100 µg/mL
- Concentration (Candida albicans [22]): 10 µg/mL
- Concentration (Candida albicans [23]): 0.1 µg/mL
- Concentration (Candida tropicalis [24]): 1 µg/mL
- Concentration (Candida tropicalis [25]): 0.1 µg/mL
- Concentration (Candida tropicalis [3]): 10 µg/mL
- Concentration (Candida tropicalis [26]): 1 µg/mL
- Concentration (Cryptococcus neoformans [27]): 10 µg/mL
- Concentration (Cryptococcus neoformans [28]): 1 µg/mL
- Concentration (Cryptococcus neoformans [29]): 1 µg/mL
- Concentration (Cryptococcus neoformans [30]): 0.1 µg/mL
- Cure (Cavia porcellus [31]): 19
- Activity (Cavia porcellus [32]): 17
- Activity (Cavia porcellus [33]): 0
- Concentration (Microsporum canis [9]): 100 µg/mL
- Concentration (Microsporum canis [34]): 100 µg/mL
- Concentration (Microsporum canis [35]): 100 µg/mL
- Concentration (Microsporum canis [36]): 10 µg/mL
- Concentration (Mucor [10]): > 100 µg/mL
- Concentration (Mucor [37]): 100 µg/mL
- Concentration (Mucor [38]): > 100 µg/mL
- Concentration (Mucor [39]): 100 µg/mL
- Concentration (Phialophora verrucosa [40]): 10 µg/mL
- Concentration (Phialophora verrucosa [41]): 1 µg/mL
- Concentration (Phialophora verrucosa [42]): 100 µg/mL
- Cure (Rattus norvegicus [43]): 35
- Concentration (Saprolegnia [14]): 100 µg/mL
- Concentration (Saprolegnia [44]): 10 µg/mL
- Concentration (Saprolegnia [45]): 10 µg/mL
- Concentration (Saprolegnia [46]): 1 µg/mL
- Concentration (Sporothrix schenckii [47]): 100 µg/mL
- Concentration (Sporothrix schenckii [48]): 100 µg/mL
- Concentration (Sporothrix schenckii [49]): 100 µg/mL
- Concentration (Sporothrix schenckii [50]): 1 µg/mL
- Concentration (Trichophyton benhamiae [16]): 1 µg/mL
- Concentration (Trichophyton benhamiae [51]): 1 µg/mL
- Concentration (Trichophyton benhamiae [52]): 1 µg/mL
- Concentration (Trichophyton rubrum [17]): 100 µg/mL
- Concentration (Trichophyton rubrum [53]): 10 µg/mL
- Concentration (Trichophyton rubrum [54]): 10 µg/mL
- Concentration (Trichophyton rubrum [55]): 1 µg/mL
- Concentration (Trichophyton benhamiae [56]): 0.1 µg/mL
- Cure (Cavia porcellus [57]): 20
- Concentration (Phialophora verrucosa [58]): 10 µg/mL
- Activity (Rattus norvegicus [59]): 2
